pKi: −log10 of the molar value.
Legend:
rat SGLT2 = target: T1, rat SGLT2 (Rattus norvegicus, UniProt P53792); experiment: Inhibition of radiolabeled α-MG uptake into COS-7 cells transfected with rat SGLT2 (Dixon plot); type: cell-based; details: α-MG 0.3 and 1 mM
T1 construct: expressed in transfected cells; host or cells: COS-7
T1 sequence (P53792 1-670): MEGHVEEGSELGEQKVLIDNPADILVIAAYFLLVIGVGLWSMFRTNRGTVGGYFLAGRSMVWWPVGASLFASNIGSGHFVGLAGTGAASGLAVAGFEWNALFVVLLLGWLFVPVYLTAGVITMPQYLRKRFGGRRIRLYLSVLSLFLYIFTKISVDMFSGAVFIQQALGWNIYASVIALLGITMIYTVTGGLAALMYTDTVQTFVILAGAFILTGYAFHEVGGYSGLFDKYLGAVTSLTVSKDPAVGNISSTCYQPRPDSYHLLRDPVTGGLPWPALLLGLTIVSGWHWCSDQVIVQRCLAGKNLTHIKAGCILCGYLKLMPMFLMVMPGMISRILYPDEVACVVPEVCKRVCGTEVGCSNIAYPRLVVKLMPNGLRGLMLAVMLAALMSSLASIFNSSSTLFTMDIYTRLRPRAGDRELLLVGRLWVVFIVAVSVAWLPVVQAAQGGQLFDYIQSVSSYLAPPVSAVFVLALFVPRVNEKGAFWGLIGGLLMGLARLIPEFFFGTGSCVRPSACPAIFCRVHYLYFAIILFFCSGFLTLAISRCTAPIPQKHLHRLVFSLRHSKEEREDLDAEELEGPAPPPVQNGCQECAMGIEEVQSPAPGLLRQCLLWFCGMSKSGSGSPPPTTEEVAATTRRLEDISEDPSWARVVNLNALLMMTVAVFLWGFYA
Method: Selective inhibition study. Inhibition constants (Ki) of mizagliflozin for rat and human SGLT1 and SGLT2 were determined measuring concentration-dependent effects of test compound on uptake of radiolabeled methyl-α-D-glucopyranoside (α-MG) into COS-7 cells transiently transfected with cloned SGLT1 or SGLT2. Mizagliflozin was assessed at concentrations from 1 to 30 μM and 3 to 100 μM for human and rat SGLT2, respectively. It was assessed at concentrations from 30 nM to 1 μM and 10 to 30 nM for human and rat SGLT1, respectively. α-MG test concentrations were 0.3 and 1 mM. Data were analyzed and Ki determined using Dixon plots of initial transport rates. […] Inhibition constants were also determined for human SGLT1 and SGLT2.

[1] = tested on: STZ-induced diabetic rats; experiment: Mixed carbohydrate tolerance test in STZ-induced diabetic rats (Example 3); type: in vivo, rat; details: mixed carbohydrate 2.0 g/kg
Method: Study in diabetic rats. Mizagliflozin was tested in a rat model for diabetes and efficacy, as measured by a relative decrease in plasma glucose, was determined using a mixed carbohydrate tolerance test. Diabetic model rats were prepared by intravenous administration of streptozotocin (STZ) to induce diabetes. Seven days after STZ administration, rats were fasted for 16 hours and then given an oral loading dose of 2.0 g/kg of mixed carbohydrate (soluble starch:sucrose:lactose monohydrate=6:3:1). Mizagliflozin, or water as the vehicle control, was then administered as a single oral dose to groups of male rats (n=8/group) at doses of 0.01, 0.03, 0.1, and 0.3 mg/kg. Another control group was given vehicle and consisted of normal male Sprague Dawley rats that were not administered STZ. Voglibose was also administered as a single oral dose to male rats (n=8/group) at dose levels of 0.03, 0.1 and 0.3 mg/kg. Blood samples were collected just prior to loading with mixed carbohydrate and at 0.5, 1, 2, 3, 4, and 6 hours after loading. Plasma glucose concentrations were determined and ΔAUC0-1 h for plasma glucose was calculated.

[2] = tested on: normal Sprague Dawley rats; experiment: Mixed carbohydrate tolerance test in normal rats; type: in vivo, rat
Method: Study on normal rats. The efficacy of mizagliflozin (decreasing plasma glucose levels) in normal Sprague Dawley rats was determined in a mixed carbohydrate tolerance test. Normal rats were fasted for 16 hours and then given an oral loading dose of 2.0 g/kg of mixed carbohydrate (soluble starch:sucrose:lactose monohydrate=6:3:1). Mizagliflozin (KGA-3235 sebacate), or water as the vehicle control, was then administered as a single oral dose to groups of male rats (n=8/group) at doses of 0.03, 0.1, 0.3, and 1 mg/kg. Voglibose, a glucosidase inhibitor similar to acarbose, was used as a positive control and was administered as a single oral dose to male rats (n=8/group) at dose levels of 0.1, 0.3 and 1 mg/kg. Blood samples were collected just prior to loading with mixed carbohydrate and at 0.5, 1, 2, 3, 4, and 6 hours after loading.

[3] = tested on: STZ-induced diabetic rats; experiment: Oral glucose tolerance test in STZ-induced diabetic rats (Example 4); type: in vivo, rat
Method: Study in diabetic rats using oral glucose tolerance test. Efficacy of mizagliflozin was tested in a rat model for diabetes using an oral glucose tolerance test (OGTT). Diabetic model rats were prepared by intravenous administration of STZ to induce diabetes. Seven days after STZ administration, rats were fasted for 16 hours and then given an oral loading dose of 2.0 g/kg of glucose. Mizagliflozin, or water as the vehicle control, was then administered as a single oral dose to groups of male rats (n=8/group) at doses of 0.03, 0.1, 0.3, and 1 mg/kg. Another control group was given vehicle and consisted of normal male Sprague Dawley rats that were not administrated STZ. Voglibose was also administered as a single oral dose to male rats (n=8/group) at dose levels of 0.1, 0.3 and 1 mg/kg. Blood samples were collected just prior to loading with mixed carbohydrate and at 0.5, 1, 2, 3, 4, and 6 hours after loading. Plasma glucose concentrations were determined and ΔAUC0-1 h for plasma glucose was calculated.

For `O=C(CCc1ccc(O)cc1)c1c(O)cc(O)cc1O[C@@H]1O[C@H](CO)[C@@H](O)[C@H](O)[C@H]1O` [phlorizin, reference compound], the pKi (rat SGLT2) was 7.39.

For `OCC(CO)N[C@H]1C[C@](O)(CO)[C@@H](O)[C@H](O)[C@H]1O` [voglibose, reference compound], the “ΔAUC0-1 h of plasma glucose versus vehicle control” value [1] was “significant decrease”, the ED50 ([2]; Rattus norvegicus, read-out: ED50 calculated from mean ΔAUC0-1 h (% of control), mixed carbohydrate 2.0 g/kg, single oral dose) was 0.32 mg/kg and the “ΔAUC0-1 h of plasma glucose versus vehicle control” value ([2]; mixed carbohydrate 2.0 g/kg) was “significant decrease”. For the same molecule, the “ΔAUC0-1 h relative to control group” value ([3]; OGTT, maximum dose 1 mg/kg) was “not half or less than half that in the control group” and the “ΔAUC0-1 h of plasma glucose versus vehicle control” value ([3]; glucose 2.0 g/kg) was “significant decrease”.
